Results reported in patent publication US10357537B2, “Cyclotides as immunosuppressive agents” (priority 2011, dated 2019).
Read-outs that look alike come from different tables or passages of the source. Bridge positions count the residues as written; N and C are the ends. Peptide text beside a SMILES is read from it.

Key:
[1] = test system: CD3 purified T-lymphocytes; test: Anti-proliferative CFSE assay on magnetic-purified CD3+ lymphocytes; details: for IC50: read-out: IC50 (μM) ± STDEV, inhibition of CD3 purified T-lymphocyte proliferation, CD3 purified lymphocytes, anti-CD3/28 mAbs, 72 h
Experimental: (§1) The anti-proliferative effect of cyclotide mutants/variants was tested according to Example 5. […] Afterwards the cell proliferation was assessed by analysing cell division using flow cytometric-based histogram analysis.

[2] = test system: activated human primary PBMC; test: Anti-proliferative CFSE cell division assay on anti-CD3/CD28-activated PBMC; details: for cytotoxicity in PBMC proliferation assay: at 14 μM; for IC50: read-out: IC50 (μM) ± STDEV, inhibition of PBMC proliferation, PBMCs, anti-CD3/28 mAbs, 72 h, n.a. = not active
Experimental: Human peripheral blood mononuclear cells (PBMC) were isolated from the blood of healthy adult donors obtained from the Blood Transfusion Centre (University Medical Center, Freiburg, Germany). Venous blood was centrifuged on a LymphoPrep™ gradient (density: 1.077 g/cm^3, 20 min, 500×g, 20° C.; Progen, Heidelberg, Germany). Afterwards cells were washed twice with medium and cell viability and concentration was determined using the trypan blue exclusion test. PBMC were cultured in RPMI 1640 medium supplemented with 10% heat-inactivated fetal calf serum (PAA, Coelbe, Germany), 2 mM L-glutamine, 100 U/mL penicillin and […] (all from Invitrogen, Karlsruhe, Germany). The cells were cultured at 37° C. in a humidified incubator with a 5% CO2/95% air atmosphere. All experiments conducted on human material were approved by the Ethics committee of the University of Freiburg.
(§2) After cultivation, the cells were assessed in bioassays as described in the text.
For cell proliferation and cell division tracking analysis PBMC were harvested and washed twice in cold PBS and resuspended in PBS at a concentration of 5×10^6 cells/mL. Cells were incubated for 10 min at 37° C. with carboxyfluorescein diacetate succinimidyl ester (CFSE; 5 μM: Sigma-Aldrich, Taufkirchen, Germany). The staining reaction was stopped by washing twice with complete medium. Afterwards, the cell division progress was analysed using flow cytometric analysis.
as §1

[3] = test system: activated human primary PBMC
Experimental: as §2
The levels of apoptosis were determined using the annexin V-FITC apoptosis detection kit (eBioscience, Frankfurt, Germany) according to the manufacturer's instructions. After annexin V staining, propidium iodide solution (PI; eBioscience) was added and the cells were incubated in the dark, followed by a flow cytometric analysis to determine the amount of apoptosis and necrosis. CPT (30 μg/mL) and Triton-X 100 (0.5%) was used as positive controls for apoptosis and necrosis, respectively.
Cellular apoptotic and necrotic hallmarks were measured by using inter-nucleosomal DNA fragmentation (subG1^+ cells) assay and phosphatidylserine surface analysis through a single and combinatory annexin V and propidium iodide staining. This double staining process allowed the discrimination between viable (annexin^−/PI^−), apoptotic (annexin^+/PI^− and annexin^+/PI^+) or necrotic (annexin^−/PI^+) cells.

Question: Which “cytotoxicity in CD3 purified lymphocyte proliferation assay” value ([1]; at 14 μM) does the source give for CC(C)C[C@@H]1NC(=O)[C@H](CCCCN)NC(=O)[C@H](CC(N)=O)NC(=O)[C@H](CCCNC(=N)N)NC(=O)[C@H]([C@@H](C)O)NC(=O)[C@@H]2CSSC[C@@H]3NC(=O)[C@H]([C@@H](C)O)NC(=O)CNC(=O)CNC(=O)[C@H](C(C)C)NC(=O)[C@@H]4CSSC[C@H](NC(=O)[C@H](CCCCN)NC(=O)[C@H](CSSC[C@H](NC(=O)[C@H](C(C)C)NC(=O)[C@@H]5CCCN5C1=O)C(=O)NCC(=O)N[C@@H](CCC(=O)O)C(=O)N[C@@H]([C@@H](C)O)C(=O)N4)NC(=O)CNC(=O)[C@@H]1CCCN1C(=O)[C@H]([C@@H](C)O)NC(=O)[C@H](CC(N)=O)NC3=O)C(=O)N[C@@H](CO)C(=O)N[C@@H](Cc1c[nH]c3ccccc13)C(=O)N1CCC[C@H]1C(=O)N[C@@H](C(C)C)C(=O)N2 [T20K, G1K, Kalata T20K, G1K] (cyclo(CGETCVGGTCNTPGCKCSWPVCTRNKLPV); disulfide 1-15, 5-17, 10-22) here?
Answer: (cytotoxic)

Question: And the IC50 [1]?
Answer: 1.1 ± 0.7 µM

Question: What about the “cytotoxicity in PBMC proliferation assay” value [2] of the same molecule?
Answer: (cytotoxic)

Question: What about the “cytotoxicity in PBMC proliferation assay” value ([2]; listed as T20K+G1K) of the same molecule?
Answer: cytotoxic

Question: Triton-X 100 was tested. Which induction of necrosis [3] did it give?
Answer: significantly increased the fractions of these cells

Question: What does the source list for CC[C@H](C)[C@@H]1NC(=O)[C@@H]2CCCN2C(=O)[C@H](Cc2c[nH]c3ccccc23)NC(=O)[C@H]([C@@H](C)O)NC(=O)[C@@H]2CSSC[C@@H]3NC(=O)[C@H]([C@@H](C)O)NC(=O)[C@H](CCC(=O)O)NC(=O)CNC(=O)[C@@H]4CSSC[C@H](NC(=O)CNC(=O)[C@@H]5CCCN5C(=O)[C@H]([C@@H](C)O)NC(=O)[C@H](CC(N)=O)NC(=O)[C@H](CSSC[C@H](NC1=O)C(=O)N[C@@H]([C@@H](C)O)C(=O)N[C@@H](CCCNC(=N)N)C(=O)N[C@@H](CC(=O)O)C(=O)NCC(=O)N[C@@H](CC(C)C)C(=O)N1CCC[C@H]1C(=O)N[C@@H](C(C)C)C(=O)N4)NC(=O)[C@H]([C@@H](C)O)NC(=O)CNC(=O)CNC(=O)[C@H](Cc1ccccc1)NC3=O)C(=O)N[C@@H](CO)C(=O)N2 [Kalata B2] (cyclo(CFGGTCNTPGCSCTWPICTRDGLPVCGET); disulfide 1-13, 6-18, 11-26)?
Answer: IC50 [1]: 0.6 ± 0.02 µM; IC50 ([2]; cyclotides 1.8-14 μM): 0.2 ± 0.1 µM

Question: How did the IC50 [1] turn out when CC[C@@H](C)[C@H]1NC(=O)[C@H]2CCCN2C(=O)[C@@H](Cc2c[nH]c3ccccc23)NC(=O)[C@@H]([C@H](C)O)NC(=O)[C@H]2CSSC[C@H]3NC(=O)[C@@H]([C@H](C)O)NC(=O)[C@@H](CCC(=O)O)NC(=O)CNC(=O)[C@H]4CSSC[C@@H](NC(=O)CNC(=O)[C@H]5CCCN5C(=O)[C@@H]([C@H](C)O)NC(=O)[C@@H](CC(N)=O)NC(=O)[C@@H](CSSC[C@@H](NC1=O)C(=O)N[C@H]([C@H](C)O)C(=O)N[C@H](CCCNC(=N)N)C(=O)N[C@H](CC(=O)O)C(=O)NCC(=O)N[C@H](CC(C)C)C(=O)N1CCC[C@@H]1C(=O)N[C@H](C(C)C)C(=O)N4)NC(=O)[C@@H]([C@H](C)O)NC(=O)CNC(=O)CNC(=O)[C@@H](Cc1ccccc1)NC3=O)C(=O)N[C@H](CO)C(=O)N2 [all-D kalata B2, D-kalataB2] was run?
Answer: 2.9 ± 0.4 µM

Question: What about the IC50 ([2]; cyclotides 1.8-14 μM) of the same molecule?
Answer: 2.3 ± 0.8 µM

Question: With CC[C@H](C)[C@H](NC(=O)CN)C(=O)NCC(=O)N[C@@H](C)C(=O)N[C@H](C(=O)N[C@@H](CC(C)C)C(=O)N[C@@H](CCCCN)C(=O)N[C@H](C(=O)N[C@@H](CC(C)C)C(=O)N[C@H](C(=O)N[C@H](C(=O)NCC(=O)N[C@@H](CC(C)C)C(=O)N1CCC[C@H]1C(=O)N[C@@H](C)C(=O)N[C@@H](CC(C)C)C(=O)N[C@H](C(=O)N[C@@H](CO)C(=O)N[C@@H](Cc1c[nH]c2ccccc12)C(=O)N[C@H](C(=O)N[C@@H](CCCCN)C(=O)N[C@@H](CCCNC(=N)N)C(=O)N[C@@H](CCCCN)C(=O)N[C@@H](CCCNC(=N)N)C(=O)N[C@@H](CCC(N)=O)C(=O)N[C@@H](CCC(N)=O)C(N)=O)[C@@H](C)CC)[C@@H](C)CC)[C@@H](C)O)[C@@H](C)O)C(C)C)C(C)C [melittin] as the molecule, how does the induction of necrosis ([3]; kalata B1 14 μM vs untreated control, Triton-X 100, melittin high concentrations) read?
Answer: slight effect on necrosis induction at high concentrations

Question: What about the induction of apoptosis ([3]; kalata B1 1.8-14 μM, CPT 30 μg/mL, melittin up to 1.6 μM) of the same molecule?
Answer: mainly due to the induction of apoptosis

Question: And the “cell division / proliferation of activated PBMC (in words)” value ([2]; CFSE, flow cytometry, extract 50-100 μg/mL, cyclotides 1.8-14 μM, melittin 0.05-1.6 μM)?
Answer: decrease of proliferating PBMC at 1.6 μM
